From PubChem BioAssay AID328 (DTP/NCI, 2004) come the findings set out here.

This test deals with BDF1 mice, P388 leukemia ip, median survival T/C. The test is described as follows: NCI In Vivo Anticancer Drug Screen. Data for tumor model P388 Leukemia (intraperitoneal) in B6D2F1 (BDF1) mice. Particulars: endpoint: median survival time, higher = longer survival. The method in brief:
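Each value expresses how treatment altered survival: treated-mouse outcome over vehicle-mouse outcome, both groups bearing the transplanted tumour.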

The mark [1] stands for this setting: dose: 50.0 mg/kg/injection, schedule: Q04DX003 (ip), vehicle: saline.
Where [2] appears, read: dose: 100.0 mg/kg/injection, schedule: Q04DX003 (ip), vehicle: saline.
[3] abbreviates: dose: 12.5 mg/kg/injection, schedule: Q04DX003 (ip), vehicle: saline with Tween-80.
[4] abbreviates: dose: 25.0 mg/kg/injection, schedule: Q04DX003 (ip), vehicle: saline with Tween-80.
The mark [5] stands for this setting: dose: 50.0 mg/kg/injection, schedule: Q04DX003 (ip), vehicle: saline with Tween-80.
The mark [6] stands for this setting: dose: 100.0 mg/kg/injection, schedule: Q04DX003 (ip), vehicle: saline with Tween-80.
[7] abbreviates: dose: 200.0 mg/kg/injection, schedule: Q04DX003 (ip), vehicle: saline with Tween-80.
Setting [8] is: dose: 400.0 mg/kg/injection, schedule: Q04DX003 (ip), vehicle: saline with Tween-80.
Where [9] appears, read: dose: 200.0 mg/kg/injection, schedule: Q04DX003 (ip), vehicle: saline.
[10] abbreviates: dose: 400.0 mg/kg/injection, schedule: Q04DX003 (ip), vehicle: saline.
Setting [11] is: dose: 25.0 mg/kg/injection, schedule: Q01DX009 (ip), vehicle: saline.
[12] abbreviates: dose: 50.0 mg/kg/injection, schedule: Q01DX009 (ip), vehicle: saline.
Where [13] appears, read: dose: 12.5 mg/kg/injection, schedule: Q01DX009 (ip), vehicle: saline.

Molecules are shown by their SMILES. Values joined by “and” are separate entries in the source; they are usually repeats but may differ in a detail not shown here. Equal entries are not always repeated. Toxic doses and inconclusive results are not listed.

As to `CCOC(=O)C(C)(Br)C(=O)OCC`, the T/C runs as follows: (dose: 25.0 mg/kg/injection, schedule: Q04DX003 (ip), vehicle: saline) 109 % of control; under setting [1], 100 % of control; under setting [2], 113 % of control.
As to `Cc1[nH]c(=O)[nH]c(=O)c1NC(=O)c1ccccc1[N+](=O)[O-]`, the T/C is, setting by setting: (dose: 12.5 mg/kg/injection, schedule: Q01DX009 (ip), vehicle: saline with Tween-80) 95 % of control; under setting [3], 92 % of control; (dose: 25.0 mg/kg/injection, schedule: Q01DX009 (ip), vehicle: saline with Tween-80) 104 % of control; under setting [4], 92 % of control; (dose: 50.0 mg/kg/injection, schedule: Q01DX009 (ip), vehicle: saline with Tween-80) 87 % of control; under setting [5], 92 % of control.
In the case of `CC(c1ccccc1)[n+]1ccccc1C1OCCO1` (stereo not given), the T/C runs as follows: (dose: 6.25 mg/kg/injection, schedule: Q04DX003 (ip), vehicle: saline) 100 % of control; (dose: 12.5 mg/kg/injection, schedule: Q04DX003 (ip), vehicle: saline) 97 % of control.
In the case of `CC1(C)C2CCC1(C)C1OC(=O)NN=C21` (stereo not given), the T/C is, setting by setting: (dose: 12.5 mg/kg/injection, schedule: Q01DX001 (ip), vehicle: saline with Tween-80) 100 % of control; (dose: 25.0 mg/kg/injection, schedule: Q01DX001 (ip), vehicle: saline with Tween-80) 98 % of control; (dose: 50.0 mg/kg/injection, schedule: Q01DX001 (ip), vehicle: saline with Tween-80) 103 % of control.
With `Cc1sc2ncnc(N)c2c1C`, the T/C by setting is: under setting [5], 103 % of control; under setting [6], 105 % of control; under setting [7], 94 % of control; under setting [8], 105 % of control.
For the compound `CCCCCCCCCCCCCCCCN(C)Cc1ccccc1`, the T/C runs as follows: under setting [2], 107 % of control; under setting [9], 108 % of control; under setting [10], 116 % of control.
As to `COc1cc(C=NCCN=Cc2cc(OC)c(OC)c(OC)c2)cc(OC)c1OC`, the T/C is, setting by setting: under setting [3], 111 % of control; under setting [4], 107 % of control; under setting [5], 92 % of control; under setting [7], 95 % of control.
Take `CC(=O)OCC(=O)[C@@]1(O)CC[C@H]2[C@@H]3CCC4=CC(=O)C=C[C@]4(C)[C@H]3[C@@H](O)C[C@@]21C`: the T/C by setting is: under setting [11], 91 % of control; under setting [12], 91 % of control; under setting [2], 109 % of control.
Regarding `Nc1ncnc2c(C3OC(CO)C(O)C3O)[nH]nc12` (stereo not given), the T/C by setting is: (dose: 1.5 mg/kg/injection, schedule: Q01DX009 (ip), vehicle: saline) 100 % of control; (dose: 2.3 mg/kg/injection, schedule: Q01DX009 (ip), vehicle: saline) 109 % of control; (dose: 8.0 mg/kg/injection, schedule: Q01DX009 (ip), vehicle: saline) 113 % of control; under setting [13], 159 % of control; (dose: 33.0 mg/kg/injection, schedule: Q04DX003 (ip), vehicle: saline) 104 % of control; under setting [1], 114 % of control. The T/C is, setting by setting: (dose: 75.0 mg/kg/injection, schedule: Q04DX003 (ip), vehicle: saline) 95 % of control; (dose: 100.0 mg/kg/injection, schedule: Q04DX003 (ip), vehicle: saline sonified) 118 % of control.
On to `COc1cc2c(cc1OC)/C(=C1\OC(=O)c3c1ccc1c3OCO1)N(C)CC2`, for which the T/C runs as follows: under setting [6], 100 % of control; under setting [7], 92 % of control; under setting [8], 88 % of control.
With `O=C1c2ccccc2-c2ncccc21`, the T/C is, setting by setting: (dose: 100.0 mg/kg/injection, schedule: Q04DX003 (ip), vehicle: Klucel (hydroxypropylcellulose) (HPC)) 100 % of control; (dose: 200.0 mg/kg/injection, schedule: Q04DX003 (ip), vehicle: Klucel (hydroxypropylcellulose) (HPC)) 95 % of control.
For the compound `CCC1C2CC3C4N(C)c5ccc(Br)cc5C45CC(C2C5O)[N+]3(CC(O)CN2CCCCC2)C1O` (stereo not given), the T/C is, setting by setting: under setting [13], 106 % of control; under setting [11], 115 % of control; under setting [12], 89 % of control and 93 % of control.
Regarding `COc1ccc2nc(C)c(COC(C)=O)c(Cl)c2c1`, the T/C is 104 % of control under setting [12]; 104 % of control under setting [2]; 104 % of control (dose: 200.0 mg/kg/injection, schedule: Q01DX009 (ip), vehicle: saline); 105 % of control under setting [9]; 101 % of control (dose: 400.0 mg/kg/injection, schedule: Q01DX009 (ip), vehicle: saline); 90 % of control under setting [10].
For the compound `O=S(=O)(c1ccccc1)N1CCOC1=S`, the T/C under setting [6] is 114 % of control, the T/C under setting [7] is 95 % of control and the T/C under setting [8] is 95 % of control.
Consider `CCCC(=O)OCc1ccc(Cl)cc1Cl`, for which the T/C was 109 % of control under setting [6] and 113 % of control under setting [8].
